Tests used:
Type in all cases: cell-based
[1] = tested on: E. coli DH5α; test: Antibacterial activity: MIC and growth curve against E. coli DH5α in 96-well plate; conditions: minimal inhibitory concentration against E. coli DH5α; 96-well plate, 5×10^5 CFU/mL, 37° C., judged after 8 h
Procedure, shortened: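 Log-phase DH5α (OD600 about 0.5, 37° C, 185 rpm in LB) was pelleted, resuspended in fresh LB and seeded at 5×10^5 CFU/mL with recombinant protein at 50, 25 and 12.5 μg/mL (two-fold series), in triplicate. Plates were shaken at 175 rpm, 37° C, and OD600 was read every 30 min. MIC was the lowest concentration with no growth.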

[2] = tested on: E. coli BL21; test: MIC against Gram-negative bacteria: E. coli BL21; conditions: 5×10^5 CFU/mL
Procedure, shortened: (§1)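 MIC = lowest concentration of recombinant protein showing no growth. Test proteins: purified human-derived EGF domain proteins, two-fold dilution series, three wells per concentration; inoculum 5×10^5 CFU/mL in LB; incubation 37° C with shaking at 175 rpm.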

[3] = tested on: Pseudomonas aeruginosa; test: MIC against Gram-negative bacteria: Pseudomonas aeruginosa; conditions: 5×10^5 CFU/mL
Procedure, shortened: as §1

[4] = tested on: Klebsiella pneumonia; test: MIC against Gram-negative bacteria: Klebsiella pneumonia; conditions: 5×10^5 CFU/mL
Procedure, shortened: as §1

[5] = tested on: Enterobacter cloacae; test: MIC against Gram-negative bacteria: Enterobacter cloacae; conditions: 5×10^5 CFU/mL
Procedure, shortened: as §1

[6] = tested on: Aeromonas hydrophila; test: MIC against Gram-negative bacteria: Aeromonas hydrophila; conditions: 5×10^5 CFU/mL
Procedure, shortened: as §1

[7] = tested on: Citrobacter diversus; test: MIC against Gram-negative bacteria: Citrobacter diversus; conditions: 5×10^5 CFU/mL
Procedure, shortened: as §1

[8] = tested on: Moraxella catarrhalis; test: MIC against Gram-negative bacteria: Moraxella catarrhalis; conditions: 5×10^5 CFU/mL
Procedure, shortened: as §1

[9] = tested on: Proteus mirabilis; test: MIC against Gram-negative bacteria: Proteus mirabilis; conditions: 5×10^5 CFU/mL
Procedure, shortened: as §1

[10] = tested on: Proteus vulgaris; test: MIC against Gram-negative bacteria: Proteus vulgaris; conditions: 5×10^5 CFU/mL
Procedure, shortened: as §1

[11] = tested on: Serratia marcescens; test: MIC against Gram-negative bacteria: Serratia marcescens; conditions: 5×10^5 CFU/mL
Procedure, shortened: as §1

[12] = E. coli BL21, 10 h cultivation at 37° C.
[13] = Pseudomonas aeruginosa, 10 h cultivation at 37° C.
[14] = Klebsiella pneumonia, 10 h cultivation at 37° C.
[15] = Enterobacter cloacae, 10 h cultivation at 37° C.
[16] = Aeromonas hydrophila, 10 h cultivation at 37° C.
[17] = Citrobacter diversus, 10 h cultivation at 37° C.
[18] = Moraxella catarrhalis, 10 h cultivation at 37° C.
[19] = Proteus mirabilis, 10 h cultivation at 37° C.
[20] = Proteus vulgaris, 10 h cultivation at 37° C.
[21] = Serratia marcescens, 10 h cultivation at 37° C.
[22] = 10 h cultivation at 37° C., two-fold serial dilution

## PRT1475 (DINECKDPSNINGGCSQICDNTPGSYHCSCKNGFVMLSNKKDCK; listed as Homo sapiens)
[1]
  MIC: 25 µg/mL
[2]; [12]
  MIC against E. coli BL21: 12.5 µg/mL
[3]; [13]
  MIC against P. aeruginosa: 12.5 µg/mL
[4]; [14]
  MIC against K. pneumonia: 12.5 µg/mL
[5]; [15]
  MIC against E. cloacae: 25 µg/mL
[6]; [16]
  MIC against A. hydrophila: 12.5 µg/mL
[7]; [17]
  MIC against C. diversus: 25 µg/mL
[8]; [18]
  MIC against M. catarrhalis: 12.5 µg/mL
[9]; [19]
  MIC against P. mirabilis: 25 µg/mL
[10]; [20]
  MIC against P. vulgaris: 12.5 µg/mL
[11]; [21]
  MIC against S. marcescens: 12.5 µg/mL

## PRT265 (CQDGHGGCSEHANCSQVGTMVTCTCLPDYEGDGWSC; listed as Homo sapiens)
[1]
  MIC: 25 µg/mL
[2]; [12]
  MIC (μg/mL) E. coli BL21: 12.5 µg/mL
[3]; P. aeruginosa, 10 h cultivation at 37° C.
  MIC (μg/mL) P. aeruginosa: 25 µg/mL
[4]; K. pneumonia, 10 h cultivation at 37° C.
  MIC (μg/mL) K. pneumonia: 12.5 µg/mL
[5]; E. cloacae, 10 h cultivation at 37° C.
  MIC (μg/mL) E. cloacae: 25 µg/mL
[6]; A. hydrophila, 10 h cultivation at 37° C.
  MIC (μg/mL) A. hydrophila: 12.5 µg/mL
[7]; C. diversus, 10 h cultivation at 37° C.
  MIC (μg/mL) C. diversus: 25 µg/mL
[8]; M. catarrhalis, 10 h cultivation at 37° C.
  MIC (μg/mL) M. catarrhalis: 25 µg/mL
[9]; P. mirabilis, 10 h cultivation at 37° C.
  MIC (μg/mL) P. mirabilis: 25 µg/mL
[10]; P. vulgaris, 10 h cultivation at 37° C.
  MIC (μg/mL) P. vulgaris: 50 µg/mL
[11]; S. marcescens, 10 h cultivation at 37° C.
  MIC (μg/mL) S. marcescens: 25 µg/mL

## PRT1165 (NRAICRQGCSPKHGSCKLPGDCRCQYGWQGLYCD; listed as Homo sapiens)
[1]
  MIC: 50 µg/mL
[2]; [22]
  MIC E. coli BL21: 25 µg/mL
[3]; [22]
  MIC P. aeruginosa: 12.5 µg/mL
[4]; [22]
  MIC K. pneumonia: 25 µg/mL
[5]; [22]
  MIC E. cloacae: 50 µg/mL
[6]; [22]
  MIC A. hydrophila: 25 µg/mL
[7]; [22]
  MIC C. diversus: 12.5 µg/mL
[8]; [22]
  MIC M. catarrhalis: 25 µg/mL
[9]; [22]
  MIC P. mirabilis: 50 µg/mL
[10]; [22]
  MIC P. vulgaris: 25 µg/mL
[11]; [22]
  MIC S. marcescens: 12.5 µg/mL

## PRT1485 (DVNECRRPLERRVCHHSCHNTVGSFLCTCRPGFRLRADRVSCE; listed as Homo sapiens)
[1]
  MIC: 12.5 µg/mL
[2]; [12]
  MIC against E. coli BL21: 50 µg/mL
[3]; [13]
  MIC against P. aeruginosa: 12.5 µg/mL
[4]; [14]
  MIC against K. pneumonia: 12.5 µg/mL
[5]; [15]
  MIC against E. cloacae: 12.5 µg/mL
[6]; [16]
  MIC against A. hydrophila: 50 µg/mL
[7]; [17]
  MIC against C. diversus: 12.5 µg/mL
[8]; [18]
  MIC against M. catarrhalis: 50 µg/mL
[9]; [19]
  MIC against P. mirabilis: 12.5 µg/mL
[10]; [20]
  MIC against P. vulgaris: 12.5 µg/mL
[11]; [21]
  MIC against S. marcescens: 12.5 µg/mL

## PRT590 (CDCNILGSRRDMPCDEESGRCLCLPNVVGPKCDQCAPYHWKLASGQGCEP; listed as Homo sapiens)
[1]
  MIC: 50 µg/mL
[2]; 96-well plate, 37° C., 10 h
  MIC against E. coli BL21: 25 µg/mL
[3]; 96-well plate, 37° C., 10 h
  MIC against P. aeruginosa: 12.5 µg/mL
[4]; 96-well plate, 37° C., 10 h
  MIC against K. pneumonia: 25 µg/mL
[5]; 96-well plate, 37° C., 10 h
  MIC against E. cloacae: 50 µg/mL
[6]; 96-well plate, 37° C., 10 h
  MIC against A. hydrophila: 25 µg/mL
[7]; 96-well plate, 37° C., 10 h
  MIC against C. diversus: 12.5 µg/mL
[8]; 96-well plate, 37° C., 10 h
  MIC against M. catarrhalis: 25 µg/mL
[9]; 96-well plate, 37° C., 10 h
  MIC against P. mirabilis: 50 µg/mL
[10]; 96-well plate, 37° C., 10 h
  MIC against P. vulgaris: 25 µg/mL
[11]; 96-well plate, 37° C., 10 h
  MIC against S. marcescens: 12.5 µg/mL
